For this experiment, the system named is HSV-1. Briefly: HSV-1 infection of Vero 76 cells, viral DNA hybridization capture assay. It counts as cell-based. The following applies: Human alphaherpesvirus 1; HSV-1 (MOI=0.001) in Vero 76 cells, 40–48 hours incubation, HSV DNA hybridization with chemiluminescence detection. The method, then:
Vero 76 cells were maintained in MEM with Earle's salts, L-glutamine, 8% FBS (Hyclone, A-1111-L) and 100 units/mL Penicillin-100 μg/mL Streptomycin. For assay conditions, FBS was reduced to 2%. Cells are seeded into 96-well tissue culture plates at a density of 5×10^4 cells/well after being incubated for 45 min at 37° C. in the presence of HSV-1 or HSV-2 (MOI=0.001). Test compounds are added to the wells and the plates are incubated at 37° C. for 40–48 hours. Cell lysates are prepared as follows: media was removed and replaced with 150 μL/well 0.2 N NaOH with 1% Igepal CA 630 or NP-40. Plates were incubated up to 14 days at room temperature in a humidified chamber to prevent evaporation.
For the detection probe, a gel-purified, digoxigenin-labeled, […] PCR fragment of the HSV UL-15 sequence was utilized. PCR conditions included 0.5 μM primers, 180 μM dTTP, 20 μM dUTP-digoxigenin (Boehringer Mannheim 1558706), 200 μM each of dATP, dCTP, and dGTP, 1×PCR Buffer II (Perkin Elmer), 2.5 mM, MgCl2, 0.025 units/μL of AmpliTaq Gold polyerase (Perkin Elmer), and 5 ng a gel-purified HSV DNA per 100 μL Extension conditions were 10 min at 95° C., followed by 30 cycles of 95° C. for 1 min, 55° C. for 30 sec, and 72° C. for 2 min. The amplification was completed with a 10-min incubation at 72° C. Primers were selected to amplify a 728 bp probe spanning a section of the HSV1 UL15 open reading frame (nucleotides 249–977). Single-stranded transcripts were purified with Promega M13 Wizard kits. The final product was mixed 1:1 with a mixture of 6 M GuSCN, 100 mM EDTA and 200 μg/mL herring sperm DNA and stored at 4° C.
The capture DNA plasmid (HSV UL13 region in pUC) was linearized by cutting with Xba I, denatured for 15 min at 95° C. and diluted immediately into Reacti-Bind DNA Coating Solution (Pierce, 17250, diluted 1:1 with TE buffer, pH 8) at 1 ng/μL 75 μl/well were added to Corning (#3922 or 9690) white 96-well plates and incubated at room temperature for at least 4 hrs before washing twice with 300 μL/well 0.2×SSC/0.05% Tween-20 (SSC/T buffer). The plates were then incubated overnight at room temperature with 150 μL/well 0.2 N NaOH, 1% IGEPAL and 10 μg/mL herring sperm DNA.
Twenty-seven (27) μL of cell lysate was combined with 45 μL of hydridization solution (final concentration: 3M GuSCN, 50 mM EDTA, 100 μg/ml salmon sperm DNA, 5× Denhardt's solution, 0.25× APE, and 5 ng of the digoxigenin-labeled detection probe). APE is 1.5 M NH4-acetate, 0.15 M NH4H2phosphate, and 5 mM EDTA adjusted to pH 6.0. Mineral oil (50 μL) was added to prevent evaporation. The hybridization plates were incubated at 95° C. for 10 minutes to denature the DNA, then incubated at 42° C. overnight. The wells were washed 6× with 300 μL/well SSC/T buffer then incubated with 75 μL/well anti-digoxigenin-HRP-conjugated antibody (Boehringer Mannheim 1207733, 1:5000 in TE) for 30 min at room temperature. The wells were washed 6× with 300 μL/well with PBS/0.05% Tween-20 before 75 μL/well SuperSignal LBA substrate (Pierce) was added. The plates were incubated at room temperature for 30 minutes and chemiluminescence was measured in a Wallac Vietor reader.
The following results were obtained for HSV-1.

Some results are limits rather than exact numbers.

As to `Fc1ccc(-c2nn3c(NC4CCCC4)nccc3c2-c2ccnc(NC3CCCC3)n2)cc1` [Example 1, N-Cyclopentyl-3-[2-(cyclopentylamino)pyrimidin-4-yl]-2-(4-fluorophenyl)pyrazolo[1,5-c]pyrimidin-7-amine], it took 720 nM to reach half-maximal inhibition (IC50).

With `Fc1ccc(-c2nn3c(NC4CCCC4)nccc3c2-c2ccnc(NC3CC3)n2)cc1` [Example 2, N-Cyclopentyl-3-[2-(cyclopropylamino)pyrimidin-4yl]-2-(4-fluorophenyl)pyrazolo[1,5-c]pyrimidin-7-amine], the IC50 – broadly, the concentration needed to halve the response being measured – was determined as 5500 nM.

In the case of `Clc1cccc(-c2nn3cnccc3c2-c2ccnc(NC3CCCC3)n2)c1` [Example 3, 4-[2-(3-Chlorophenyl)pyrazolo[1,5-c]pyrimidin-3-yl]-N-cyclopentylpyrimidin-2-amine], half-maximal inhibition (IC50) required 3900 nM.

For the molecule `CSc1nccc2c(-c3ccnc(NC4CCCC4)n3)c(-c3cccc(Cl)c3)nn12` [Example 4, 4-[2-(3-Chlorophenyl)-7-(methylthio)pyrazolo[1,5-c]pyrimidin-3-yl]-N-cyclopentylpyrimidin-2-amine], 11300 nM corresponded to half-maximal inhibition (IC50).

As to `Clc1cccc(-c2nn3c(NC4CCCC4)nccc3c2-c2ccnc(NC3CCCC3)n2)c1` [Example 5, 2-(3-Chlorophenyl)-N-cyclopentyl-3-[2-(cyclopentylamino)-4-pyrimidinyl]pyrazolo[1,5-c]pyrimidin-7-amine], it took 460 nM to reach half-maximal inhibition (IC50).

`Clc1cccc(-c2nn3c(N4CCOCC4)nccc3c2-c2ccnc(NC3CCCC3)n2)c1` [Example 6, 4-[2-(3-Chlorophenyl)-7-(4-morpholinyl)pyrazolo[1,5-c]pyrimidin-3-yl]-N-cyclopentyl-2-pyrimidinamine] showed an IC50 of 200 nM.

`COCCNc1nccc2c(-c3ccnc(NC4CCCC4)n3)c(-c3cccc(Cl)c3)nn12` [Example 7, 2-(3-Chlorophenyl)-3-[2-(cyclopentylamino)-4-pyrimidinyl]-N-(2-methoxyethyl)pyrazolo[1,5-c]pyrimidin-7-amine] gave an IC50 of 300 nM.

`Oc1nccc2c(-c3ccnc(NC4CCCC4)n3)c(-c3cccc(Cl)c3)nn12` [Example 8, 2-(3-Chlorophenyl)-3-[2-(cyclopentylamino)-4-pyrimidinyl]pyrazolo[1,5-c]pyrimidin-7-ol] had an IC50 of 2500 nM.

`CSc1nc(NC2CCCC2)n2nc(-c3ccccc3)c(-c3ccnc(F)c3)c2n1` [Example 9, N-Cyclopentyl-8-(2-fluoro-4-pyridinyl)-2-(methylsulfanyl)-7-phenylpyrazolo[1,5-a][1,3,5]triazin-4-amine]: the IC50 was determined as 7100 nM.

As to `c1ccc(-c2nn3c(NC4CCCC4)nc(NC4CCCC4)nc3c2-c2ccnc(NC3CCCC3)c2)cc1` [Example 10, N^2,N^4-Dicyclopentyl-8-[2-(cyclopentylamino)-4-pyridinyl]-7-phenylpyrazolo[1,5-a][1,3,5]triazine-2,4-diamine], the midpoint of inhibition, the IC50, lay at 120 nM.

Turning to `c1ccc(-c2nn3c(NC4CCCC4)ncnc3c2-c2ccnc(NC3CCCC3)n2)cc1` [Example 11, N-Cyclopentyl-8-[2-(cyclopentylamino)-4-pyrimidinyl]-7-phenylpyrazolo[1,5-a][1,3,5]triazin-4-amine], half-maximal inhibition (IC50) required 6400 nM.

Consider `CCCCNc1nccc(-c2c(-c3ccc(F)cc3)nn3c(NC4CCCC4)nccc23)n1` [Example 12, 3-[2-(Butylamino)pyrimidin-4-yl]-N-cyclopentyl-2-(4-fluorophenyl)pyrazolo[1,5-c]pyrimidin-7-amine], for which the IC50 is 1000 nM.

The molecule `Fc1ccc(-c2nn3c(NC4CCCC4)nccc3c2-c2ccnc(Nc3ccccc3)n2)cc1` [Example 13, 3-(2-Anilinopyrimidin-4-yl)-N-cyclopentyl-2-(4-fluorophenyl)pyrazolo-[1,5-c]pyrimidin-7-amine] registered an IC50 of 1500 nM.

Take `Fc1ccc(-c2nn3c(NC4CCCC4)nccc3c2-c2ccnc(Nc3nc4ccccc4s3)n2)cc1` [Example 14, 3-[2-(1,3-Benzothiazol-2-ylamino)pyrimidin-4-yl]-N-cyclopentyl-2-(4-fluorophenyl)pyrazolo[1,5-c]pyrimidin-7-amine]: the IC50 was greater than 40000 nM.

`Cc1csc(Nc2nccc(-c3c(-c4ccc(F)cc4)nn4c(NC5CCCC5)nccc34)n2)n1` [Example 15, N-Cyclopentyl-2-(4-fluorophenyl)-3-{2-[(4-methyl-1,3-thiazol-2-yl)amino]pyrimidin-4-yl}pyrazolo[1,5-c]pyrimidin-7-amine] displayed an IC50 greater than 40000 nM.

In turn, `Fc1ccc(-c2nn3c(NC4CCCC4)nccc3c2-c2ccnc(Nc3nc4ccccc4[nH]3)n2)cc1` [Example 16, 3-[2-(1H-Benzimidazol-2-ylamino)pyrimidin-4-yl]-N-cyclopentyl-2-(4-fluorophenyl)pyrazolo[1,5-c]pyrimidin-7-amine] registered an IC50 greater than 40000 nM.

The molecule `Fc1ccc(CNc2nccc(-c3c(-c4ccc(F)cc4)nn4c(NC5CCCC5)nccc34)n2)cc1` [Example 17, N-Cyclopentyl-3-{2-[(4-fluorobenzyl)amino]pyrimidin-4-yl}-2-(4-fluorophenyl)pyrazolo[1,5-c]pyrimidin-7-amine] registered an IC50 of 2000 nM.

With `Fc1ccc(-c2nn3c(NC4CCCC4)nccc3c2-c2ccnc(NCCc3ccccc3)n2)cc1` [Example 18, N-Cyclopentyl-2-(4-fluorophenyl)-3-{2-[(2-phenylethyl)amino]pyrimidin-4yl}pyrazolo[1,5-c]pyrimidin-7-amine], it took 3500 nM to reach half-maximal inhibition (IC50).

With `CC(C)(C)Nc1nccc(-c2c(-c3ccc(F)cc3)nn3c(NC4CCCC4)nccc23)n1` [Example 19, 3-[2-(tert-Butylamino)pyrimidin-4-yl]-N-cyclopentyl-2-(4-fluorophenyl)pyrazolo[1,5-c]pyrimidin-7-amine], the IC50 is 3000 nM.

Regarding `CSc1nccc2c(-c3ccnc(NC4CCCC4)n3)c(-c3ccc(F)cc3)nn12` [Example 20, N-Cyclopentyl-4-[2-(4-fluorophenyl)-7-(methylsulfanyl)pyrazolo[1,5-c]pyrimidin-3-yl]pyrimidin-2-amine], the IC50 was greater than 40000 nM.

For the molecule `COc1ccc(-c2nn3c(NC4CCCC4)nccc3c2-c2ccnc(NC3CCCC3)n2)cc1` [Example 21, N-Cyclopentyl-3-[2-(cyclopentylamino)pyrimidin-4-yl]-2-(4-methoxyphenyl)pyrazolo[1,5-c]pyrimidin-7-amine], the IC50 amounted to 400 nM.

On to `Oc1ccc(-c2nn3c(NC4CCCC4)nccc3c2-c2ccnc(NC3CCCC3)n2)cc1` [Example 22, 4-{7-(Cyclopentylamino)-3-[2-(cyclopentylamino)pyrimidin-4-yl]pyrazolo[1,5-c]pyrimidin-2-yl}phenol], for which the IC50 amounted to 4000 nM.

Take `c1cc(-c2c(-c3ccc(OCC4CC4)cc3)nn3c(NC4CCCC4)nccc23)nc(NC2CCCC2)n1` [Example 23, N-Cyclopentyl-3-[2-(cyclopentylamino)pyrimidin-4-yl]-2-[4-(cyclopropylmethoxy)phenyl]pyrazolo[1,5-c]pyrimidin-7-amine]: the IC50 was found to be 500 nM.

For `COc1ccc(-c2nn3c(NC4CC4)nccc3c2-c2ccnc(NC3CCCC3)n2)cc1` [Example 24, 3-[2-(Cyclopentylamino)pyrimidin-4-yl]-N-cyclopropyl-2-(4-methoxyphenyl)pyrazolo[1,5-c]pyrimidin-7-amine], the IC50 worked out at 1000 nM.

`CCCCOc1ccc(-c2nn3c(NC4CCCC4)nccc3c2-c2ccnc(NC3CCCC3)n2)cc1` [Example 25, 2-(4-Butoxyphenyl)-N-cyclopentyl-3-[2-(cyclopentylamino)pyrimidin-4-yl]pyrazolo[1,5-c]pyrimidin-7-amine]: the IC50 came to 600 nM.

The values are drawn from patent publication US7247626B2, “Pyrazolopyrimidine derivatives and pharmaceutical compositions containing them” (SmithKline Beecham Corporation, priority 2002, dated 2007).
